Data taken from ChEMBL document CHEMBL4261648, “Lobaric acid and pseudodepsidones inhibit NF-κB signaling pathway by activation of PPAR-γ” (Bioorg Med Chem, 2018).

Experiments:
[1] = tested on: U-937; assay: Antiinflammatory activity in human U937 cells assessed as inhibition of LPS-induced IL-8 production preincubated for 2 hrs followed by LPS stimulation and measured after 24 hrs post LPS challenge by ELISA; assay type: functional
[2] = tested on: U-937; assay: Antiinflammatory activity in human U937 cells assessed as inhibition of LPS-induced IL-1beta secretion preincubated for 2 hrs followed by LPS stimulation and measured after 24 hrs post LPS challenge by ELISA; assay type: functional
[3] = tested on: U-937; assay: Antiinflammatory activity in human U937 cells assessed as inhibition of LPS-induced IL-6 production preincubated for 2 hrs followed by LPS stimulation and measured after 24 hrs post LPS challenge by ELISA; assay type: functional
[4] = target: Toll-like receptor 4 (Homo sapiens) (UniProt O00206); assay: Inhibition of TLR4 in human U937-3xkappaB-LUC cells assessed as inhibition of Aggregatibacter actinomycetemcomitans LPS-induced NF-kappaB activation preincubated for 30 mins followed by LPS stimulation and measured after 6 hrs post LPS challenge by Bright-Glo luciferase reporter gene assay relative to control
Chain of Toll-like receptor 4 (Homo sapiens) (O00206 whole entry): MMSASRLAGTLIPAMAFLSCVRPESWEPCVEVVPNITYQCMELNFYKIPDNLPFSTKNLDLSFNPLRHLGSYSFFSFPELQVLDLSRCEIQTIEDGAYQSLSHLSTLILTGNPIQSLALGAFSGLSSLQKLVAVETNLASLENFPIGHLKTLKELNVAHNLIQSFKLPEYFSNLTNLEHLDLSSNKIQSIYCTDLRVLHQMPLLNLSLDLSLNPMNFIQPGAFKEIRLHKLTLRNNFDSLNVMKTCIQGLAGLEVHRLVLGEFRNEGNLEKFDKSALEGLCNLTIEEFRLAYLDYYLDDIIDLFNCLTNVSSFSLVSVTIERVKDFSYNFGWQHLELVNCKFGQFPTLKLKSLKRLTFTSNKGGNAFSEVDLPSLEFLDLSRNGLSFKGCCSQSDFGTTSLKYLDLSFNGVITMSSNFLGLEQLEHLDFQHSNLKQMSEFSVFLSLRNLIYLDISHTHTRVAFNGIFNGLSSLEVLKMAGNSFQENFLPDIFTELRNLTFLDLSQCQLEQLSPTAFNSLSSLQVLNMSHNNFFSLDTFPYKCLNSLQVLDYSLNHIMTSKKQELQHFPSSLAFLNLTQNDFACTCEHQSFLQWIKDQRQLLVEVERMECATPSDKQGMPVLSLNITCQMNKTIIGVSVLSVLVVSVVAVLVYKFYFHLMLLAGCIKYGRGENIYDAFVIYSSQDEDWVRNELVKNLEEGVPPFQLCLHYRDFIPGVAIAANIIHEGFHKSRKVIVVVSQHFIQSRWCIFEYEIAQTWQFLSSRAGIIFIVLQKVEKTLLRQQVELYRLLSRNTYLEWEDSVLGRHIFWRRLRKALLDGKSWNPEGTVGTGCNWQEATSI

[5] = tested on: U-937; assay: Antiinflammatory activity in PMA-differentiated human U937 cells assessed as inhibition of LPS-induced TNFalpha secretion preincubated for 2 hrs followed by LPS stimulation and measured after 24 hrs post LPS challenge by ELISA relative to control; assay type: functional

inhibition [4]: 99.3%
SMILES: Cc1ccc(S(=O)(=O)/C=C/C#N)cc1
inhibition (INH) [1]: 99.1%
inhibition (INH) [2]: 95.9%
inhibition (INH) [3]: 99.2%
inhibition (INH) [5]: 99.5%
